# Reference: US20090318357A1, “Molecules Preferentially Associated with Effector T Cells or Regulatory T Cells and Methods of Their Use” (Tolerx, Inc., priority 2002, published 2009)
# Key:
# Type in all cases: cell-based, human
# [1] = tested on: anti-CD3/anti-CD28 stimulated PBLs; test: Transcription factor (FOXP3, Tbox21, GATA3) mRNA expression by Real-Time PCR in activated PBL
# Description: This example describes the effect of TGFβ1 on the expression levels of Tbox 21, GATA3 and FOXP3 expression in anti-CD3/anti-CD28 stimulated PBLs. Real-time PCR was used to quantitate the levels of transcription factor mRNA in the presence and absence of TGFβ1.
# PBL were stimulated for 72 hours with anti-CD3/anti-CD28 in the presence or absence of TGFβ1 and total RNA was extracted using a QiganRNeasy Mini Kit according to manufacturer's instructions. RNA was stored at minus 80° C.
# cDNA was prepared from RNA using the Applied Biosystems High-Capacity cDNA Archive Kit according to manufacturer's instructions.
# One μg cDNA was amplified using Applied Biosystems Assays-on-Demand™ Gene Expression products (i.e., TaqMan Universal PCR Mastermix and Assay-on-Demand solution, including marker specific primers) according to the following protocol, in accordance with manufacturer's instructions. Probe/primer reagents for FOXP3, GATA3 and Tbox21 were obtained from Applied Biosystems via the Assay on Demand program.
# For the QPCR reaction, 2.5 μl Assay on Demand reagent (Applied Biosystems) were added to 25 μl TaqMan Master Mix™ and samples brought to a total volume of 50 μl with RNAse-free water. PCR reactions were run under the following conditions: 50° C. for 1 minute, 95° C. for 10 minutes and 40 cycles of 95° C. for 15 seconds followed by 60° C. for 1 minute. 18 sRNA or β-actin was run with every assay as a control; 2.5 μl of primer/probe mix, 25 μl of TaqMan MasterMix™, 22.5 μl RNAse-free water. Reactants were detected using an Applied Biosystems QPCR instrument (i.e., ABI Program 7000 SDS Sequence Detection System). The relative expression of the transcription factors for both TGFβ1-treated and untreated stimulated PBLs was determined. Relative expression was calculated assuming that the levels of transcription factor mRNA in stimulated PBL in the absence of added cytokines was 100%. […]
# Th1 cells [2] = test: Cytokine production in differentiated Th1 cells (Searchlight ELISA); settings: percent of untreated control, 7-12 days
# From the text: (§1) Differentiated cell lines were produced from cells prepared from human cord blood or peripheral blood CD4+CD45RA+ naïve T cells by a variety of methods, including flow cytometry and magnetic bead separations. Purity of the starting populations was >95%. Cells were then stimulated by CD3 and CD28 antibodies in RPMI 1640 with 10% FCS and 1% Human AB serum with defined mixtures of cytokines and neutralizing antibodies to cytokines to produce the differentiated cell types. Th1 cells were produced by culture with IL12 (62 U/ml) and anti-IL4 (0.2 ug/ml); Th2 cells were produced by culture in IL4(145 U/ml) and anti-IL12 (10 ug/ml) and anti-IFNγ (10 ug/ml); and regulatory T cells were produced by culture in TGFβ (32 U/ml), IL9 (42 U/ml), anti-IL4 (10 ug/ml) and anti-IL12 (10 ug/ml) and anti-IFNγ (10 ug/ml). (Note: anti-IL12 was not used in all experiments). All cultures were supplemented with IL2 (65 U/ml) and IL15 (4500 U/ml). Cells were split into larger culture dishes as warranted by cell division. At the conclusion of one round of cell differentiation (7-12 days), cells were harvested for preparation of total RNA for use in the gene chip experiments.
# (§2) Differentiated cells were prepared as described in Example 1. Varying concentrations (0.1 μM, 1.0 μM and 10 μM) of Thioperamide was added at the time of plating. At the conclusion of one round of cell differentiation (7-12 days), cells were assayed for the production of the cytokines, IL-2, IL-4, IL-5, IL-10, IL-12-p70, IL-13, IFN-γ, TNF-alpha, and TGFβ1, by Searchlight™ technology, a chemiluminescent enzyme-linked immunoabsorbant assay (ELISA) according to the manufacturer's instructions, commercially available from Pierce Biotechnology.
# (§3) Data are plotted as a percent of control (untreated) assuming that the levels of cytokine production in stimulated differentiated cells in the absence of Thioperamide is 100%.
# (§4) Differentiated cells were prepared as described in Example 1. Varying concentrations (1.0 μM, 10.0 μM and 100 μM) of Serotonin was added at the time of plating. At the conclusion of one round of cell differentiation (7-12 days), cells were assayed for the production of the cytokines, IL-2, IL-4, IL-5, IL-10, IL-12-p70, IL-13, IFN-γ, TNFα, and TGFβ1, by ELISA as described in Example 5.
# (§5) Data are plotted as a percent of control (untreated) assuming that the levels of cytokine production in stimulated PBL in the absence of Serotonin is 100%.
# as §4, with “(0.1” for “(1.0”, “1.0” for “10.0”, “10.0” for “100”, “Rolipram or Zardaverine” for “Serotonin”
# (§6) The results of the effect of Rolipram on the production of cytokines is shown in FIGS. 11A, 11B, and 11C, and the results of the effect of Zardaverine on the production of cytokines is shown in FIGS. 12A, 12B, and 12C. Data are plotted as a percent of control (untreated) assuming that the levels of cytokine production in stimulated PBL in the absence of rolipram or zardaverine is 100%.
# Th2 cells [3] = test: Cytokine production in differentiated Th2 cells (Searchlight ELISA); settings: percent of untreated control, 7-12 days
# From the text: as §1, §2, §3, §4, §5
# as §4, with “(0.1” for “(1.0”, “1.0” for “10.0”, “10.0” for “100”, “Rolipram or Zardaverine” for “Serotonin”
# as §6
# TGFβ1-derived Treg cells [4] = test: Cytokine production in TGFβ1-derived Treg cells (Searchlight ELISA); settings: percent of untreated control, 7-12 days
# From the text: as §1, §2, §3, §4, §5
# as §4, with “(0.1” for “(1.0”, “1.0” for “10.0”, “10.0” for “100”, “Rolipram or Zardaverine” for “Serotonin”
# as §6
# Th1 cells [5] = test: Proliferation of differentiated Th1 cells (cell count); settings: re-stimulated with anti-CD3 and anti-CD28, three days, cells counted; vs untreated cells
# From the text: (§7) Differentiated cell lines were produced from cells prepared from human cord blood or peripheral blood CD4+CD45RA+ naïve T cells by a variety of methods, including flow cytometry and magnetic bead separations. Purity of the starting populations was >95%. Cells were then stimulated by CD3 and CD28 antibodies in RPMI 1640 with 10% FCS and 1% Human AB serum with defined mixtures of cytokines and neutralizing antibodies to cytokines to produce the differentiated cell types. […]
# (§8) Differentiated cell types were prepared as described in Example 1 then cultured in the presence of anti-CD3 and anti-CD28 for seven days. Cells were subsequently re-stimulated with anti-CD3 and anti-CD28, with the addition of Serotonin at 1, 10 and 100 μM, for three days at which time the cells were counted and the data were plotted as a percent of control (untreated cells).
# as §8, with “anti-CD28 (as described in Example 7),” for “anti-CD28,”, “either Rolipram or Zardaverine” for “Serotonin”, “0.1 μM, 1.0 μM and” for “1,”, “μM” for “and 100 μM,”
# Th2 cells [6] = test: Proliferation of differentiated Th2 cells (cell count); settings: cells counted
# From the text: as §7, §8
# as §8, with “anti-CD28 (as described in Example 7),” for “anti-CD28,”, “either Rolipram or Zardaverine” for “Serotonin”, “0.1 μM, 1.0 μM and” for “1,”, “μM” for “and 100 μM,”
# TGFβ1-derived Treg cells [7] = test: Proliferation of TGFβ1-derived Treg cells (cell count); settings: cells counted; for proliferation of TGFβ1-derived Treg cells: re-stimulated with anti-CD3 and anti-CD28, three days, vs untreated cells
# From the text: as §1, §8
# as §8, with “anti-CD28 (as described in Example 7),” for “anti-CD28,”, “either Rolipram or Zardaverine” for “Serotonin”, “0.1 μM, 1.0 μM and” for “1,”, “μM” for “and 100 μM,”
# [8] = mRNA, over the concentrations tested, control = 100%
# [9] = mRNA, among the concentrations tested
# [10] = PBL stimulated 72 hours with anti-CD3/anti-CD28, mRNA, FIG. 1
Compound,"Tbox21 expression relative to control [1, 8]",production of IFN-gamma (Th1 cells [2]),production of TNF-alpha (Th1 cells [2]),production of IL-4 (Th2 cells [3]),production of IL-5 (Th2 cells [3]),production of IL-10 (Th2 cells [3]),production of IL-13 (Th2 cells [3]),production of IFN-gamma (TGFβ1-derived Treg cells [4]),production of IL-2 (TGFβ1-derived Treg cells [4]),production of TGFβ1 (TGFβ1-derived Treg cells [4]),"FOXP3 expression relative to control [1, 8]","GATA3 expression relative to control [1, 8]",production of IL-10 (Th1 cells [2]),proliferation of Th1 cells (Th1 cells [5]),proliferation of TGFβ1-derived Treg cells (TGFβ1-derived Treg cells [7]),further results
S=C(NC1CCCCC1)N1CCC(c2cnc[nH]2)CC1 [Thioperamide],relatively unchanged,significantly induce,significantly induce,significantly increased,significantly increased,significantly reduced,significantly increased,significantly increased,significantly increased,significantly increased,–,–,–,–,–,FOXP3 expression relative to control ([1]; at 10 μM): moderate increase; GATA3 expression relative to control ([1]; at 10 μM): moderate increase; production of IL-13 (Th1 cells [2]): significantly reducing; production of IL-4 (TGFβ1-derived Treg cells [4]): significantly reduced; production of IL-10 (TGFβ1-derived Treg cells [4]): significantly increased
NCCc1c[nH]c2ccc(O)cc12 [Serotonin],increase,significantly reduced,significantly reduced,significantly reduced,significantly reduced,no effect,significantly reduced,significantly reduced,significantly reduced,significantly reduced,increase,increase,significantly reduced,no proliferative effect,no proliferative effect,"concentration of maximal GATA3 induction [1, 9]: 10.0 µM; concentration of maximal Tbox 21 induction [1, 9]: 1.0 µM; production of IL-2 (Th1 cells [2]): significantly reduced; production of IL-12 (Th1 cells [2]): significantly reduced; increase of proliferation of Th2 cells compared to untreated control cells (Th2 cells [6]; at each concentration tested (1, 10 and 100 μM), three days): 50%"
COc1ccc(C2CNC(=O)C2)cc1OC1CCCC1 (stereo not drawn) [Rolipram],neither of these inhibitors had more than a modest effect,–,–,significantly increased,significantly increased,–,significantly increased,–,–,significantly increased,increased expression,increased expression,significantly reduced,reduce,reduce,"proliferation of Th2 cells (Th2 cells [6]; re-stimulated with anti-CD3 and anti-CD28, three days, vs untreated cells): reduce; proliferation of TGFβ1-derived Treg cells compared with Th1 and Th2 cells (TGFβ1-derived Treg cells [7]; 0.1, 1.0 and 10 μM, three days): may have been more strongly affected"
CC(C)Oc1ccc2c(=O)c3cc(C(=O)O)ccc3oc2c1 [AH6809],–,–,–,–,–,–,–,–,–,–,trend toward increasing,unchanged,–,–,–,"Tbox21 expression relative to untreated control ([1]; at 0.1 μM): increased; Tbox21 expression relative to untreated control ([1]; at 10 μM): decreased; concentration of maximal FOXP3 expression [1, 9]: 0.1 µM"
"TGFβ1: Transforming growth factor, beta 1; secreted protein added to stimulated PBL",–,–,–,–,–,–,–,–,–,–,–,–,–,–,–,"FOXP3 expression relative to an untreated control [1, 10]: approximately 2.5 fold; GATA3 expression relative to an untreated control [1, 10]: approximately 2 fold"
